Experimental data published in EPA's ToxValDB 9.5 (doi:10.2903/j.efsa.2012.2502).

Columns and labels:
[1] = test system: Colinus virginianus; conditions: acute, oral, mortality
[2] = test system: Typhlodromus pyri; experiment: LR50; higher = less toxic; conditions: not reported; mortality
[3] = test system: Apis mellifera; conditions: acute, mortality
[4] = test system: Rattus norvegicus; conditions: for LD50: acute, oral, mortality; for NOAEL: reproduction developmental, histopathology: nonneoplastic
[5] = test system: Tagia sp.; conditions: acute; duration: 14 days; mortality
[6] = test system: Oncorhynchus mykiss; conditions: acute; duration: 96 hours; mortality
[7] = test system: Oryctolagus sp.; conditions: developmental; development

Compound | LD50 ([1]; diet) [mg/kg-day] | LD50 [1] [mg/kg] | LR50 [2] [g/ha] | LD50 ([3]; dermal) [µg/piece] | LD50 ([3]; oral, unspecified) [µg/piece] | LD50 [4] [mg/kg] | NOAEL [4] [mg/kg-day] | LC50 [5] [mg/kg] | LC50 [6] [µg/mL] | NOAEL [7] [mg/kg-day]
C=C1C[C@]23C[C@@]1(O)CC[C@H]2[C@@]12C=C[C@H](O)[C@@](C)(C(=O)O1)[C@H]2[C@@H]3C(=O)O [Gibberellic acid] | > 1380 | > 2250 | – | – | – | – | – | – | – | –
C=C1C[C@]23C[C@H]1CC[C@H]2[C@@]12CC[C@H](O)[C@@](C)(C(=O)O1)[C@H]2[C@@H]3C(=O)O [Gibberellin A4] | – | – | > 40 | > 100 | > 87 | > 5000 | 300 | > 1250 | > 1.3 | 300
C=C1C[C@]23C[C@H]1CC[C@H]2[C@@]12C=C[C@H](O)[C@@](C)(C(=O)O1)[C@H]2[C@@H]3C(=O)O [Gibberellin A7] | – | – | > 40 | > 100 | > 87 | > 5000 | 300 | > 1250 | > 1.3 | 300
